In US5126432A, “Calcium channel modulating substances” (Miles Inc., priority 1988, dated 1992):
“Also recorded” adds a separate entry of the source. One block for each compound: values may come before it.

Legend:
[1] = dialysis: binding of free [3H]DHP ligand to the fractions; details: 5 mg inside bag, 0.2 nM [3H]DHP, 25° C. overnight
Description: In order to further determine the specificity of action of a particular fraction (i.e., to insure that the fraction was acting competitively on the dihydropyridine receptor and not simply depleting the free ligand), a determination of the amount of free ligand was done by dialysis as follows.
A […] segment of Spectra-por 7 dialysis tubing (0.46 mL/cm) was washed thoroughly with water to remove EDTA and other chemicals. The molecular weight cut-off of this tubing was 1,000. Dialysis was performed in 16 mm glass tubes placed in a shaker incubator at 25° C. overnight. The volume inside the bag (made from closing the tubing by tying it) was 2.5 mL; the outside volume was 10 mL of 50 mM HEPES buffer, pH 7.0. Experiments were done with the [^3 H]DHP present both inside and outside the bag. The concentration of the [^3 H]DHP ligand used was always 0.2 nM. A control using 5 mg bovine serum albumin (BSA) inside the bag was carried out. […] The brain fractions tested were also 5 mg by weight. Dialysis was carried out in the presence of the cocktail of protease inhibitors described supra present both inside and outside the bag. The experiment was terminated by taking representative aliquots from inside and outside the bag (in triplicate). The cpm were then adjusted for total volume.

[2] = tested on: calcium channel; details: known from the art; cited from earlier work
[3] = tested on: dihydropyridine receptors; experiment: stability of inhibitory activity to boiling and ashing; assay type: physicochemical; details: 270° C. for 3 hours
From the text: This observed differential activity was further evidence of a specific interaction with the dihydropyridine binding site rather than the non-specific reduction of free ligand concentration.
When this fraction was chromatographed on either a Waters Protein Pak-125 or a TSK-250 gel filtration column using 40% acetonitrile in 0.1% TFA as the mobile phase, the activity (as determined in ligand binding assays described in Example 1c) eluted in a volume less than […] fragment (amino acids 61-63) having a molecular weight of 443.

binding of [3H]DHP ligand in dialysis [1]: bind [^3 H]DHP ligand hydrophobically
Compound: bovine serum albumin: control in dialysis, 5 mg inside the bag

Compound: COC(=O)C1=C(C)NC(C)=C([N+](=O)[O-])C1c1ccccc1C(F)(F)F (stereo not drawn) [Bay K8644]
effect on calcium channel current [2]: increases calcium channel current; also recorded: can produce inhibition depending on the precise membrane potential and channel state

Compound: [Cl-].[Na+] [NaCl]
activity after ashing [3]: maintained activity upon ashing
